Data taken from US20240383915A1, “OXAZEPINE COMPOUNDS AND USES THEREOF IN THE TREATMENT OF CANCER” (Genentech, Inc., priority 2021, published 2024).

Experiments:
[1] = test system: PC-9 cells; test: PC9 proliferation assay; format: cell-based, human; settings: Homo sapiens, PC-9, PC9; read-out: PC9 Prolif IC50 (G12V)
[2] = biological target: KRas (Homo sapiens (Human), UniProt P01116); test: KRas GDP HTRF (BODIPY-GDP exchange TR-FRET); format: biochemical
Summary of the method: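 Inhibition of SOS1-mediated exchange of BODIPY-GDP on KRAS G12D, started with 3 nM recombinant human SOS1 and 300 nM BODIPY-GDP and read after 60 min. TR-FRET excitation 337 nm, ratio 520/490 nm ×10,000. IC50 from 4-parameter Hill fit of normalized data.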

[3] = biological target: KRas(G12V) (Homo sapiens (Human), UniProt P01116, G12V); test: KRas(G12V) GDP HTRF (BODIPY-GDP exchange TR-FRET); format: biochemical
Sequence of KRas(G12V) (P01116-2 other isoform, or with tags, fused parts or gaps G12V): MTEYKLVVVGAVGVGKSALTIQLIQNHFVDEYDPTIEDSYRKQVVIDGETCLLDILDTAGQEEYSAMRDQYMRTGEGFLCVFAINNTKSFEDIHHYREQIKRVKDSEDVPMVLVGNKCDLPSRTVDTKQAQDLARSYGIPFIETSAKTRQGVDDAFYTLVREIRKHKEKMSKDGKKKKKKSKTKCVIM

[4] = test system: SW480 cells; test: SW480 proliferation assay; format: cell-based; settings: Homo sapiens, SW480, SW480; read-out: SW480 Prolif IC50 (G12V)

Sequence of KRas (P01116-2 other isoform, or with tags, fused parts or gaps): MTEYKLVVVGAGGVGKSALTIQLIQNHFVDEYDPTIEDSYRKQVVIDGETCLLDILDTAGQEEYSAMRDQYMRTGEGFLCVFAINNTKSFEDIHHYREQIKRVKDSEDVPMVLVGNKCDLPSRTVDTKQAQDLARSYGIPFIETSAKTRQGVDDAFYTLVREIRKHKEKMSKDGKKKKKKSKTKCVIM

Row | Compound | IC50 [1] | IC50 [2] | IC50 [3] | IC50 [4]
1 | Cc1cc(N)nc(-c2c(Cl)c3c4c(nc(OC[C@@]56CCN5CC(F)(F)C6)nc4c2F)N([C@H](C)c2ccnnc2N)CCO3)c1C(F)(F)F (atropisomer, axis not shown) [Example 77a, 4-((R)-1-((R)-9-(6-amino-4-methyl-3-(trifluoromethyl)pyridin-2-yl)-8-chloro-2-(((S)-3,3-difluoro-1-azabicyclo[3.2.0]heptan-5-yl)methoxy)-10-fluoro-5,6-dihydro-4H-[1,4]oxazepino[5,6,7-de]quinazolin-4-yl)ethyl)pyridazin-3-amine] | 20000 nM | 0.33 nM | 0.12 nM | 21 nM
2 | Cc1cc(N)nc(-c2c(Cl)c3c4c(nc(OC[C@]56CCN5CC(F)(F)C6)nc4c2F)N([C@H](C)c2ccnnc2N)CCO3)c1C(F)(F)F (atropisomer, axis not shown) [Example 77b, 4-((R)-1-((R)-9-(6-amino-4-methyl-3-(trifluoromethyl)pyridin-2-yl)-8-chloro-2-(((R)-3,3-difluoro-1-azabicyclo[3.2.0]heptan-5-yl)methoxy)-10-fluoro-5,6-dihydro-4H-[1,4]oxazepino[5,6,7-de]quinazolin-4-yl)ethyl)pyridazin-3-amine] | 20000 nM | 0.34 nM | 0.13 nM | 65 nM
3 | Cc1cc(N)nc(-c2c(Cl)c3c4c(nc(OC[C@@]56CCN5CC(F)(F)C6)nc4c2F)N([C@H](C)c2cncnc2N)CCO3)c1C(F)(F)F (atropisomer, axis not shown) [Example 82a, 5-((R)-1-((R)-9-(6-amino-4-methyl-3-(trifluoromethyl)pyridin-2-yl)-8-chloro-2-(((S)-3,3-difluoro-1-azabicyclo[3.2.0]heptan-5-yl)methoxy)-10-fluoro-5,6-dihydro-4H-[1,4]oxazepino[5,6,7-de]quinazolin-4-yl)ethyl)pyrimidin-4-amine] | 6800 nM | 0.164 nM | 0.11 nM | 26 nM
4 | Cc1cc(N)nc(-c2c(Cl)c3c4c(nc(OC[C@]56CCN5CC(F)(F)C6)nc4c2F)N([C@H](C)c2cncnc2N)CCO3)c1C(F)(F)F (atropisomer, axis not shown) [Example 82b, 5-((R)-1-((R)-9-(6-amino-4-methyl-3-(trifluoromethyl)pyridin-2-yl)-8-chloro-2-(((R)-3,3-difluoro-1-azabicyclo[3.2.0]heptan-5-yl)methoxy)-10-fluoro-5,6-dihydro-4H-[1,4]oxazepino[5,6,7-de]quinazolin-4-yl)ethyl)pyrimidin-4-amine] | 7200 nM | 0.224 nM | 0.12 nM | 11 nM
5 | Cc1cc(N)nc(-c2c(Cl)c3c4c(nc(OC[C@@H]5CCN5CC(F)F)nc4c2F)N([C@H](C)c2cncnc2N)CCO3)c1C(F)(F)F (atropisomer, axis not shown) [Example 84a, 5-((R)-1-((R)-9-(6-amino-4-methyl-3-(trifluoromethyl)pyridin-2-yl)-8-chloro-2-(((S)-1-(2,2-difluoroethyl)azetidin-2-yl)methoxy)-10-fluoro-5,6-dihydro-4H-[1,4]oxazepino[5,6,7-de]quinazolin-4-yl)ethyl)pyrimidin-4-amine] | 12000 nM | 0.389 nM | 0.14 nM | 73 nM
6 | Cc1cc(N)nc(-c2c(Cl)c3c4c(nc(OC[C@@]56CCCN5C[C@H](F)C6)nc4c2F)N([C@H](C)c2ccnnc2N)CCO3)c1C(F)(F)F (atropisomer, axis not shown) [Example 133c] | 7100 nM | – | – | 25 nM
7 | COC1(CCOc2nc3c4c(c(Cl)c(-c5nc(N)cc(C)c5C(F)(F)F)c(F)c4n2)OCCN3[C@H](C)c2cccnc2N)CCC1 (atropisomer, axis not shown) [Example 150, 6-((R)-4-((R)-1-(2-aminopyridin-3-yl)ethyl)-8-chloro-10-fluoro-2-(2-(1-methoxycyclobutyl)ethoxy)-5,6-dihydro-4H-[1,4]oxazepino[5,6,7-de]quinazolin-9-yl)-4-methyl-5-(trifluoromethyl)pyridin-2-amine] | 8900 nM | – | – | 790 nM
8 | Cc1cc(N)nc(-c2c(Cl)c3c4c(nc(OC[C@@]56CCCN5C[C@H](F)C6)nc4c2F)N(Cc2cnc[nH]2)CCO3)c1C(F)(F)F (single isomer, unassigned) [Example 47a] | 7100 nM | – | – | 20000 nM
9 | Cc1cc(N)nc(-c2cc3nc(OCC45COC(C4)C5)nc4c3c(c2Cl)OCCN4Cc2cccnc2N)c1C(F)(F)F [Example 36, 6-(2-((2-oxabicyclo[2.1.1]hexan-4-yl)methoxy)-4-((2-aminopyridin-3-yl)methyl)-8-chloro-5,6-dihydro-4H-[1,4]oxazepino[5,6,7-de]quinazolin-9-yl)-4-methyl-5-(trifluoromethyl)pyridin-2-amine] | 20000 nM | – | – | 8200 nM
10 | Cc1cc(N)nc(-c2cc3nc(OC[C@]45CCCN4CC(F)(F)C5)nc4c3c(c2Cl)OCCN4Cc2cccnc2N)c1C(F)(F)F [Example 50, (R)-6-(4-((2-aminopyridin-3-yl)methyl)-8-chloro-2-((2,2-difluorotetrahydro-1H-pyrrolizin-7a(5H)-yl)methoxy)-5,6-dihydro-4H-[1,4]oxazepino[5,6,7-de]quinazolin-9-yl)-4-methyl-5-(trifluoromethyl)pyridin-2-amine] | 6700 nM | – | – | 930 nM
11 | Cc1cc(N)nc(-c2c(Cl)c3c4c(nc(OCC56CC(CO5)C6)nc4c2F)N([C@H](C)c2cccnc2N)CCO3)c1C(F)(F)F [Example 143, 6-((R)-2-((2-oxabicyclo[2.1.1]hexan-1-yl)methoxy)-4-((R)-1-(2-aminopyridin-3-yl)ethyl)-8-chloro-10-fluoro-5,6-dihydro-4H-[1,4]oxazepino[5,6,7-de]quinazolin-9-yl)-4-methyl-5-(trifluoromethyl)pyridin-2-amine] | 10000 nM | – | – | 94 nM

These reach a lower IC50 [1]. Values come first.

Row | IC50 [1] | IC50 [2] | IC50 [3] | IC50 [4] | Compound
12 | 2800 nM | 0.55 nM | 0.17 nM | 3.7 nM | Cc1cc(N)nc(-c2c(Cl)c3c4c(nc(OC[C@@H]5C[C@@]6(CN5C)CC6(F)F)nc4c2F)N([C@H](C)c2cccnc2N)CCO3)c1C(F)(F)F (atropisomer, axis not shown) [Example 67, 6-((R)-4-((R)-1-(2-aminopyridin-3-yl)ethyl)-8-chloro-2-(((3S,6S)-1,1-difluoro-5-methyl-5-azaspiro[2.4]heptan-6-yl)methoxy)-10-fluoro-5,6-dihydro-4H-[1,4]oxazepino[5,6,7-de]quinazolin-9-yl)-4-methyl-5-(trifluoromethyl)pyridin-2-amine]
13 | 1800 nM | 0.31 nM | 0.1 nM | 11 nM | Cc1cc(N)nc(-c2c(Cl)c3c4c(nc(OC[C@@H]5C[C@]6(CN5C)CC6(F)F)nc4c2F)N([C@H](C)c2cccnc2N)CCO3)c1C(F)(F)F (atropisomer, axis not shown) [Example 68, 6-((R)-4-((R)-1-(2-aminopyridin-3-yl)ethyl)-8-chloro-2-(((3R,6S)-1,1-difluoro-5-methyl-5-azaspiro[2.4]heptan-6-yl)methoxy)-10-fluoro-5,6-dihydro-4H-[1,4]oxazepino[5,6,7-de]quinazolin-9-yl)-4-methyl-5-(trifluoromethyl)pyridin-2-amine]
14 | 5900 nM | 0.684 nM | 0.19 nM | 23 nM | Cc1cc(N)nc(-c2c(Cl)c3c4c(nc(OC[C@@H]5CC(F)(F)CN5C)nc4c2F)N([C@H](C)c2cncnc2N)CCO3)c1C(F)(F)F (atropisomer, axis not shown) [Example 83a, 5-((R)-1-((R)-9-(6-amino-4-methyl-3-(trifluoromethyl)pyridin-2-yl)-8-chloro-2-(((S)-4,4-difluoro-1-methylpyrrolidin-2-yl)methoxy)-10-fluoro-5,6-dihydro-4H-[1,4]oxazepino[5,6,7-de]quinazolin-4-yl)ethyl)pyrimidin-4-amine]
15 | 6400 nM | 0.99 nM | 0.22 nM | 390 nM | Cc1cc(N)nc(-c2c(Cl)c3c4c(nc(N5CC6(COCCN6)C5)nc4c2F)N([C@H](C)c2cccnc2N)CCO3)c1C(F)(F)F (atropisomer, axis not shown) [Example 90, 6-((R)-4-((R)-1-(2-aminopyridin-3-yl)ethyl)-8-chloro-10-fluoro-2-(8-oxa-2,5-diazaspiro[3.5]nonan-2-yl)-5,6-dihydro-4H-[1,4]oxazepino[5,6,7-de]quinazolin-9-yl)-4-methyl-5-(trifluoromethyl)pyridin-2-amine]
16 | 4900 nM | – | – | 77 nM | Cc1cc(N)nc(-c2c(Cl)c3c4c(nc(OCCN5CCOCC5)nc4c2F)N([C@H](C)c2cccnc2N)CCO3)c1C(F)(F)F (atropisomer, axis not shown) [Example 138, 6-((R)-4-((R)-1-(2-aminopyridin-3-yl)ethyl)-8-chloro-10-fluoro-2-(2-morpholinoethoxy)-5,6-dihydro-4H-[1,4]oxazepino[5,6,7-de]quinazolin-9-yl)-4-methyl-5-(trifluoromethyl)pyridin-2-amine]
17 | 4000 nM | – | – | 820 nM | Cc1cc(N)nc(-c2cc3nc(OC[C@@]45CCCN4CC(F)(F)C5)nc4c3c(c2Cl)OCCN4Cc2cccnc2N)c1C(F)(F)F [Example 34, (S)-6-(4-((2-aminopyridin-3-yl)methyl)-8-chloro-2-((2,2-difluorotetrahydro-1H-pyrrolizin-7a(5H)-yl)methoxy)-5,6-dihydro-4H-[1,4]oxazepino[5,6,7-de]quinazolin-9-yl)-4-methyl-5-(trifluoromethyl)pyridin-2-amine]
